For 25 compounds, TGI and GI50 results are on record in PubChem BioAssay (NCI).

SMILES strings stand for the structures. “And” between values parts separate entries of the source, which are not always exact repeats. Identical values can stand only once.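 Grown in 96-well plates, cells were treated for 48 hours with each compound at five concentrations. Insufficient inhibition: endpoint recorded as highest concentration tested. GI50 marks 50% less growth. TGI denotes the concentration required for complete inhibition of growth.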

The first experiment relates to LOX IMVI melanoma. In words: DTP human tumour cell line panel, 48 h.
Take `Cc1ccccc1C1OC1C(=O)c1ccccc1N` (stereo not drawn): the TGI – broadly, the concentration giving total growth inhibition – is more than 100 µM.

The subject of the next experiment is MDA-MB-435. The experiment can be described thus: DTP human tumour cell line panel, 48 h.
With `COc1ccc2c(c1)c1c(n2CCN2CCOCC2)-c2ccccc2CC1`, the TGI is more than 100 µM.
With `O=C1CC(O)c2c1csc2Br` (stereo not drawn), the TGI was 41.1 µM.
Take `CCCCCCCCCC[C@@H](O)[C@H]1CC[C@H]([C@H]2CC[C@H]([C@H](O)CCCCCCCCCC[C@@H]3CC(CC(C)=O)C(=O)O3)O2)O1` (stereo partly drawn): the GI50 (as a rule, the concentration that inhibits growth by half) was 1.86 µM and the TGI was more than 50 µM.
As for `CCOC(=O)c1cc(C2(O)CCN(Cc3ccccc3)C2=O)c(-c2cc(C)no2)[nH]1` (stereo not drawn), the TGI is more than 100 µM.
The same measure, in the same setting: under `Cc1cn(C2C=CC(COP(=O)(OCC3=CC(=O)c4ccccc4C3=O)N(C)CCCCCl)O2)c(=O)[nH]c1=O` (stereo not drawn) stands 3.35 µM; under `Clc1nc(Cl)nc(NC23CC4CC(CC(C4)C2)C3)n1`, 34.4 µM; under `CCOC(=O)c1cc2c([N+](=O)[O-])c(NC(C)=O)ccc2s1`, more than 100 µM.
Still for that read-out and setting: then `CCOC(=O)c1cc(=C2\CCN(CC(C)CC)C2=S)/c(=C(/O)CC)[nH]1` (stereo not drawn), with 29.6 µM; and `Cc1ccc2c(c1C)CC1(Cc3c(ccc4c3CCC4)C1=O)C2=O` (stereo not drawn), with more than 100 µM; and `OCC1CCCC(n2cnc3c(=S)nc[nH]c32)O1` (stereo not drawn), with more than 100 µM.
The same measure, in the same setting: then `COc1cc2oc(-c3ccc(O)cc3)c(OC3OC(C)C(O)C(O)C3O)c(=O)c2c(O)c1OC` (stereo not drawn), with more than 100 µM.
For the compound `CCCCc1c(O)nc(Nc2nc3ccccc3[nH]2)[nH]c1=O`, the TGI is more than 100 µM.
Same read-out and setting: under `CC1(C)CC2(C)CC1CC2O` (stereo not drawn) stands more than 100 µM; under `Clc1cc(N/N=C(/c2ccccc2)c2ncccn2)ncn1`, more than 100 µM.
`Cc1c(S(=O)(=O)c2ccccc2)c(N)n(Cc2ccccc2)c1C` gave a TGI of more than 100 µM.
Still for that read-out and setting: under `CCC(=O)C(c1ccccc1)c1ccccn1` (stereo not drawn) stands more than 100 µM; under `CCCN=C1CC(C)Nc2ccccc2N1` (stereo not drawn), more than 100 µM.
Same read-out and setting: then `Cc1ccc(-c2cc(N)n(-c3nc4c([nH]3)c(=O)n(C)c(=O)n4C)n2)cc1`, with more than 100 µM.
The same measure, in the same setting: under `C=CCN(CC=C)Cn1c(=S)sc2ccccc21` stands more than 100 µM.
The compound `O=c1[nH]c2nc3ccccc3c(=O)n2/c1=C/c1ccc(O)cc1` yielded a TGI of 69.8 µM.
For `COc1ccc(-c2c(C#N)c(S)n(C3OC(COC(C)=O)C(OC(C)=O)C(OC(C)=O)C3OC(C)=O)c(=O)c2C#N)cc1` (stereo not drawn), the GI50 is 56.9 µM and 21.3 µM; the TGI was > 100 µM and 50.6 µM.
Regarding `C[C@]12OC[C@H](c3ccccc3)N1C(=O)C1[C@H]2CC12SCCS2` (stereo partly drawn), the TGI is more than 100 µM.
The same measure, in the same setting: then `Cc1cccc(N2C(=O)C3ON(C(C(N)=O)c4ccccc4)C(c4c5ccccc5c(Cl)c5ccccc45)C3C2=O)c1C` (stereo not drawn), with 14.6 µM; and `Cc1ccccc1C1OC1C(=O)c1ccccc1N` (stereo not drawn), with 43.2 µM; and `COc1cc(COC(=O)N[C@H](C(=O)O)C(C)(C)C)c([N+](=O)[O-])cc1OC`, with more than 100 µM.

Another experiment relates to K-562 leukemia. The experiment can be described thus: DTP human tumour cell line panel, 48 h.
On to `COc1ccc2c(c1)c1c(n2CCN2CCOCC2)-c2ccccc2CC1`, for which the TGI was determined as 40.2 µM.
On to `O=C1CC(O)c2c1csc2Br` (stereo not drawn), for which the TGI was determined as 76.7 µM.
With `CCCCCCCCCC[C@@H](O)[C@H]1CC[C@H]([C@H]2CC[C@H]([C@H](O)CCCCCCCCCC[C@@H]3CC(CC(C)=O)C(=O)O3)O2)O1` (stereo partly drawn), the GI50 is 0.884 µM and the TGI was more than 50 µM.
The compound `CCOC(=O)c1cc(C2(O)CCN(Cc3ccccc3)C2=O)c(-c2cc(C)no2)[nH]1` (stereo not drawn) had a TGI of more than 100 µM.
For `Cc1cn(C2C=CC(COP(=O)(OCC3=CC(=O)c4ccccc4C3=O)N(C)CCCCCl)O2)c(=O)[nH]c1=O` (stereo not drawn), the TGI is 21.1 µM.
In the case of `Clc1nc(Cl)nc(NC23CC4CC(CC(C4)C2)C3)n1`, the TGI turned out to be 33.7 µM.
In the case of `CCOC(=O)c1cc2c([N+](=O)[O-])c(NC(C)=O)ccc2s1`, the TGI is more than 100 µM.
On the same count and under the same terms, then `CCOC(=O)c1cc(=C2\CCN(CC(C)CC)C2=S)/c(=C(/O)CC)[nH]1` (stereo not drawn), with 37.8 µM.
As to `Cc1ccc2c(c1C)CC1(Cc3c(ccc4c3CCC4)C1=O)C2=O` (stereo not drawn), the TGI is more than 100 µM.
Still for that read-out and setting: then `OCC1CCCC(n2cnc3c(=S)nc[nH]c32)O1` (stereo not drawn), with more than 100 µM; and `COc1cc2oc(-c3ccc(O)cc3)c(OC3OC(C)C(O)C(O)C3O)c(=O)c2c(O)c1OC` (stereo not drawn), with more than 100 µM; and `CCCCc1c(O)nc(Nc2nc3ccccc3[nH]2)[nH]c1=O`, with more than 100 µM.
Same read-out and setting: then `CC1(C)CC2(C)CC1CC2O` (stereo not drawn), with more than 100 µM.
Same read-out and setting: under `Clc1cc(N/N=C(/c2ccccc2)c2ncccn2)ncn1` stands 51.8 µM; under `Cc1c(S(=O)(=O)c2ccccc2)c(N)n(Cc2ccccc2)c1C`, more than 100 µM; under `CCCN=C1CC(C)Nc2ccccc2N1` (stereo not drawn), more than 100 µM.
For the compound `Cc1ccc(-c2cc(N)n(-c3nc4c([nH]3)c(=O)n(C)c(=O)n4C)n2)cc1`, the TGI is more than 100 µM.
Still for that read-out and setting: then `C[C@]12OC[C@H](c3ccccc3)N1C(=O)C1[C@H]2CC12SCCS2` (stereo partly drawn), with more than 100 µM.
Same read-out and setting: under `Cc1cccc(N2C(=O)C3ON(C(C(N)=O)c4ccccc4)C(c4c5ccccc5c(Cl)c5ccccc45)C3C2=O)c1C` (stereo not drawn) stands more than 50 µM; under `Cc1ccccc1C1OC1C(=O)c1ccccc1N` (stereo not drawn), more than 100 µM.
As for `COc1cc(COC(=O)N[C@H](C(=O)O)C(C)(C)C)c([N+](=O)[O-])cc1OC`, the TGI is more than 100 µM.

Another experiment concerns UACC-257 melanoma. The experiment can be described thus: DTP human tumour cell line panel, 48 h.
On to `COc1ccc2c(c1)c1c(n2CCN2CCOCC2)-c2ccccc2CC1`, for which the TGI was more than 100 µM.
The same measure, in the same setting: then `O=C1CC(O)c2c1csc2Br` (stereo not drawn), with 31.4 µM.
For the compound `CCCCCCCCCC[C@@H](O)[C@H]1CC[C@H]([C@H]2CC[C@H]([C@H](O)CCCCCCCCCC[C@@H]3CC(CC(C)=O)C(=O)O3)O2)O1` (stereo partly drawn), the TGI was more than 50 µM.
On to `CCOC(=O)c1cc(C2(O)CCN(Cc3ccccc3)C2=O)c(-c2cc(C)no2)[nH]1` (stereo not drawn), for which the TGI was more than 100 µM.
Same read-out and setting: under `Cc1cn(C2C=CC(COP(=O)(OCC3=CC(=O)c4ccccc4C3=O)N(C)CCCCCl)O2)c(=O)[nH]c1=O` (stereo not drawn) stands 13.9 µM; under `Clc1nc(Cl)nc(NC23CC4CC(CC(C4)C2)C3)n1`, 42.3 µM.
The same measure, in the same setting: then `CCOC(=O)c1cc2c([N+](=O)[O-])c(NC(C)=O)ccc2s1`, with more than 100 µM; and `CCOC(=O)c1cc(=C2\CCN(CC(C)CC)C2=S)/c(=C(/O)CC)[nH]1` (stereo not drawn), with 31.4 µM; and `Cc1ccc2c(c1C)CC1(Cc3c(ccc4c3CCC4)C1=O)C2=O` (stereo not drawn), with more than 100 µM.
Regarding `OCC1CCCC(n2cnc3c(=S)nc[nH]c32)O1` (stereo not drawn), the TGI is more than 100 µM.
The same measure, in the same setting: under `COc1cc2oc(-c3ccc(O)cc3)c(OC3OC(C)C(O)C(O)C3O)c(=O)c2c(O)c1OC` (stereo not drawn) stands more than 100 µM.
Compound `CCCCc1c(O)nc(Nc2nc3ccccc3[nH]2)[nH]c1=O` had a total growth inhibition concentration (TGI) of more than 100 µM.
Compound `CC1(C)CC2(C)CC1CC2O` (stereo not drawn) returned a concentration for total growth inhibition (TGI) of more than 100 µM.
The same measure, in the same setting: under `Clc1cc(N/N=C(/c2ccccc2)c2ncccn2)ncn1` stands 64.4 µM; under `Cc1c(S(=O)(=O)c2ccccc2)c(N)n(Cc2ccccc2)c1C`, more than 100 µM.
On the same count and under the same terms, then `CCC(=O)C(c1ccccc1)c1ccccn1` (stereo not drawn), with more than 100 µM.
`CCCN=C1CC(C)Nc2ccccc2N1` (stereo not drawn): the TGI was more than 100 µM.
On to `Cc1ccc(-c2cc(N)n(-c3nc4c([nH]3)c(=O)n(C)c(=O)n4C)n2)cc1`, for which the TGI worked out at 82.3 µM.
